# Measurements reported in a melting point compilation (Tetko et al.; mined from patent text by program, amines drawn as free bases though some values may be those of a salt).
row,SMILES,melting point [°C]
1,CNC(=O)CN1CCc2ccc(Nc3ncc(Cl)c(Nc4ccc(N5CCOCC5)cc4OC)n3)cc2CC1,169 to 176
2,Cc1cc(Cl)c(N2C(=O)Cc3cc(C)ccc32)c(Cl)c1,153 to 154
3,C[C@@H]1C[C@](C)(O)[C@H](C)N1c1ccc(C#N)c(F)c1,125 to 128
4,Cc1c(CO)nc2c(NC(=O)C(C)(C)C)cccn12,186 to 187
5,CS(=O)(=O)OCCNc1ccc(C(F)(F)F)cc1[N+](=O)[O-],68 to 70
6,Oc1ccc2c(c1)CCCC(c1ccccc1)=C2c1ccc(OCCCCCSCCCCF)cc1,163
7,O=C1CCN(C(=O)c2ccc3nonc3c2)CC1,136 to 139
8,CCC(=O)N1CCC(NC(=O)Nc2ccc(OC(F)(F)F)cc2)CC1,195 to 196
9,CCS(=O)(=O)Nc1cc(-n2nnn(CCCF)c2=O)c(F)cc1Cl,84 to 85
10,CCn1nnc2cc3c(N4CCN(C(=O)Nc5ccc(Oc6ccccc6)cc5)CC4)ncnc3cc21,167 to 168
11,O=C(CN1CCC(Cc2ccc(F)cc2)CC1)Nc1ccc2c(c1)NC(=O)CO2,185 to 187
12,CC(C)(C)OC(=O)CCc1ccc(-c2nc(=O)c3ccccc3s2)nc1,160 to 161
13,CO[Si](OC)(OC)O[Si](OC)(OC)O[Si](OC)(OC)OC,< -70
14,CC1(c2ccc(N)cc2F)CNC1=O (stereo unspecified),125 to 127
15,COC(=O)c1ccc(C2NCCc3c2[nH]c2ccccc32)cc1 (stereo unspecified),179
16,Cc1cc(Cn2[nH]c(N)cc2=O)ccc1Cl,131
17,Cc1nnc(N2N=C(c3cc(C)c([N+](=O)[O-])c(C)c3)c3cc4c(cc3C[C@H]2C)OCO4)o1,132 to 133
18,OCc1cnc2cc(Br)ccc2c1O,> 300
19,Cc1sc(C=O)c(C)c1C,45 to 46
20,CSc1nc(C)c(Cl)c(Cl)n1,49 to 50
21,CCOC(=O)NCCCCc1ccccc1,60 to 61
22,CC(CCCCN(C)c1ccccc1)NCC(O)c1ccc(O)c(C(N)=O)c1 (stereo unspecified),157 to 160
23,CN(C)C=Nc1c(Cl)cc(N=Cc2ccc(N(C)C)cc2Cl)cc1Cl,139 to 140
24,Cc1oc(-c2ccccc2)nc1COc1ccc(CON=C(CCC(=O)O)c2ccccn2)cc1,116 to 117
25,N#Cc1c2c(cc3ccc(O)cc13)-c1ccc(O)cc1CO2,> 280
26,CC(C)Cc1c2c(nn1C)c(N)nc1ccccc12,213 to 214

row,SMILES,melting point [°C]
1,C[C@H]1CNCC[C@@]12OC(=O)c1ccccc12 (racemic),131
2,Cn1nc(-c2c(F)cccc2Cl)nc1-c1ccc(COc2ccc(C(F)(F)F)cc2Cl)c(Cl)c1,113 to 114
3,COCCNC(=O)c1ccc(SC)c([N+](=O)[O-])c1,117 to 118
4,C=CC(=O)c1ccc(O)cc1,99 to 103
5,COC(=O)N=C1SCCN1Cc1ccc(Cl)nc1,128 to 130
6,Cc1cccc(CNc2c(NC(C)(C)C)c(=O)c2=O)c1C,237 to 239
7,CN(C)c1ccc(NC(=O)N(Cc2ccccc2)C[C@H]2CCC[C@H](CN(Cc3ccccc3)C(=O)Nc3ccc(N(C)C)cc3)C2)cc1 (relative stereo),129 to 133
8,Cc1noc(NS(=O)(=O)c2ccsc2C(=O)Nc2cc3c(cc2C#N)OCO3)c1Cl,167 to 168
9,CCCCCc1ccc(-c2ccc(C3CC(CCCCC)C(=O)O3)cc2)cc1 (stereo unspecified),86.2 to 88.4
10,Oc1ccccc1-c1cc(Oc2ccc3cccnc3c2)ncn1,188 to 191
11,O=C(O)c1cnn(-c2cccc(Cl)c2)c1Cl,209 to 211
12,COc1ccc(-c2ocnc2-c2cc(OC)c(O)c(OC)c2)cc1O,144 to 146
13,CCCCNC(=O)NCCCn1c(CCCC)nc2c(N)nc3ccccc3c21,186
14,CC(C)c1cccc(C(C)C)c1NC(=O)[C@H](Cc1ccc(OCc2ccccc2)cc1)NC(=O)OCC1c2ccccc2-c2ccccc21,168 to 171
15,C/C(=C(\C#N)C(N)=S)N1CCCN(c2ccccc2C)CC1,99 to 100
16,CC(c1oc2ccccc2c(=O)c1-c1cccc(F)c1)n1nc(-c2ccc3cc[nH]c3c2)c2c(N)ncnc21 (stereo unspecified),222 to 225
17,O=C(NNC(=O)c1ccccc1Cl)c1ccccc1Cl,217 to 219
18,COc1cc(C=C(Cl)Cl)nc(N)n1,90 to 91
19,CNc1cc(O)c(OCCO)cc1[N+](=O)[O-],210
20,COc1cc(C(=O)c2cccs2)cc(OC)c1OC,83
21,Cc1ccccc1N1CCN(CCn2c(=O)[nH]c3cscc3c2=O)CC1,214 to 216
22,Cc1ccc(Oc2ccc(C(=O)O)cc2)cc1,175
23,CC(=O)OC1CSC(Oc2cccnc2C(C)=O)C(OC(C)=O)C1OC(C)=O (stereo unspecified),168
24,COC(=O)c1cc(-c2ccc(S(C)(=O)=O)cc2)n(C2CCCCC2)n1,108
25,CNC(=O)N(c1ccncc1)n1cccc1,156 to 160
26,CC(=O)Oc1ccc(C(=O)Oc2ccc(C(=O)O)cc2)cc1C12CC3CC(CC(C3)C1)C2,264 to 265

row,SMILES,melting point [°C]
1,CN1CCN(c2ccc(Nc3ncc4ccc(-c5ccc(S(C)(=O)=O)cc5)n4n3)cc2F)CC1,227
2,CCC(CC)C(=O)N1CC(NC(=O)Nc2cccc(C(=O)O)c2)C(=O)N(CC(=O)c2ccccc2C)c2cc(C)ccc21 (stereo unspecified),244 to 246
3,CCCCOCCCNc1ccc(-n2cc(C(F)(F)F)ccc2=O)c(Cl)c1,83 to 85
4,O=C(NO)C1(NS(=O)(=O)c2ccc(OCc3ccc(Cl)cc3Cl)cc2)CC1c1ccccc1 (stereo unspecified),164 to 169
5,CCN(C)c1cc(OC)c(C(=O)NC2CCN(Cc3ccccc3)C2)cc1Cl (stereo unspecified),76 to 77
6,O=C(O)c1cn(-c2ccc(F)cc2)c2c(F)c(F)c(F)cc2c1=O,261 to 263
7,CCc1c(CCC(=O)O)ccc2c1OCO2,127 to 128
8,Cc1noc(NS(=O)(=O)c2cccc(C(F)(F)F)c2)c1Br,113 to 115
9,CCOC(=O)C1=C(COCC2COC(C)(C)O2)NC(C)=C(C(=O)OC)C1c1cccc(Cl)c1Cl (stereo unspecified),135 to 137
10,CCOC(=O)c1c(-c2cccc(F)c2)c(Cl)n2c1CNCC2,96 to 98
11,CCCCCCOc1nccc(C(N)=O)c1Cl,75 to 77
12,CCOC(=O)C1=C(C)NC(C)=C(C(=O)OCC)C1c1cc2cnccc2s1,204 to 205
13,CS(=O)(=O)N1CCC(NC(=O)Nc2cccc(C(F)(F)F)c2)CC1,226 to 229
14,N#CC(NCc1cccnc1)c1ccoc1 (stereo unspecified),80 to 82
15,O=C(C[N+](=O)[O-])c1ncn(Cc2ccccc2)c1[N+](=O)[O-],105 to 107
16,CCOC(=O)c1cn(C2CC2)c2c(F)c(C)c(F)cc2c1=O,177 to 179
17,CN(C)C(=O)C1Cc2ccc(N)cc2NC1=O (stereo unspecified),219 to 223
18,O=c1[nH]nc2n1CCc1ccccc1C2,253 to 261
19,c1ccc(-n2nnnc2OCC2CO2)cc1 (stereo unspecified),77 to 81
20,CCc1nn2c(-c3cccc(C(F)(F)F)c3)ccnc2c1C#N,144 to 146
21,CC1(C)Cc2cc(O)c3c(c2C(c2ccccc2)=N1)CC(C)(C)O3,208 to 210
22,Cc1cccc(CN2NCC(=O)NC2=O)c1,158
23,COC(=O)c1cccc([N+](=O)[O-])c1C,64.2 to 65.5
24,C#CC[C@H](c1nc2cc(Cl)ccc2c(=O)n1Nc1ccccc1)N(CCCNC(=O)OCc1ccccc1)C(=O)c1cccc(Cl)c1F,103 to 105
25,CC(=O)C=Cc1ccc(NS(C)(=O)=O)c(Oc2ccc(F)cc2F)c1,130 to 132
26,Nc1ncnc2c1c(-c1ccc(Oc3ccc(OCCO)cc3)cc1)cn2CCO,166

row,SMILES,melting point [°C]
1,Cc1ccc(SC(CCCCCc2ccc(Cl)cc2)C(=O)O)cc1 (stereo unspecified),58 to 61
2,CC(C)(C)COC(=O)COc1ccc(C(=O)CN2CCN(c3ccncc3)CC2)cc1,88 to 90
3,Cc1cc(C)c2c(c1O)C(=O)C(C)(C)C2,28 to 30
4,O=C(O)CC(Br)c1ccc([N+](=O)[O-])cc1 (stereo unspecified),166 to 167
5,CNC(=O)c1cnn(-c2cccc(Cl)c2)c1Cl,163 to 165
6,NC(=O)N(O)CC=Cc1ccoc1,136 to 137
7,O=C(NCCN1CCC(Oc2ccc(Cl)c(Cl)c2)CC1)c1nnc(Nc2ccccc2Cl)o1,161 to 162
8,O=C(CC(CC(=O)c1ccc(F)cc1)c1cccc(-c2nnn[nH]2)c1)c1ccc(F)cc1,162
9,C(=C\c1ncc(-c2cnc(-c3ccccc3)nc2)[nH]1)/c1cccnc1,258
10,CC(=O)c1cccc(NC(=O)NCCN(CCNC(=O)Nc2cccc(C(C)=O)c2)CCNC(=O)Nc2cccc(C(C)=O)c2)c1,193
11,CCNC(=O)Nc1ccc(-c2sc3c(c2CN(C)CCOCCOCC)c(=O)n(-c2ccccc2)c(=O)n3Cc2c(F)cccc2F)cc1,230 to 233
12,Cc1cccc(-c2nc(N)sc2-c2ccnc(-c3ccc(CN4CCOCC4)cc3)c2)n1,190 to 192
13,O=C1CCC(N2Cc3c(OCc4ccc5occc5c4)cccc3C2=O)C(=O)N1 (stereo unspecified),168 to 170
14,Cc1ccc(C=Nc2ccc(Cl)cc2Cl)c(C)c1,102 to 106
15,COC1=Nc2ccc(Cl)cc2N(c2ccccc2)C(=O)C1,136 to 138
16,COC(=O)N1CC[C@@H]2[C@H]1CCC[C@@]2(O)C#Cc1cccc(C)c1,110 to 112
17,OCC1OC(n2cnc3c(Nn4ccc5ccccc54)ncnc32)C(O)C1O (stereo unspecified),155
18,CC(C)n1cc(-c2nc(C(N)=O)c(N)nc2-c2ccc(Cl)cc2)ccc1=O,246
19,CCCCCCCCCCCCCCCCCCOc1cc(SC)cc(N(CC(=O)O)CC(=O)O)c1,129 to 130
20,CCCCCCCCCCCCCCCCSCC(CNS(=O)(=O)CCCCl)COC (stereo unspecified),41.5 to 43
21,NC(=O)c1sc2nccc(N3CCCN(c4ccc5c(c4)OCCO5)CC3)c2c1N,104 to 107
22,CC(C)(O)CCOc1c(-c2ccc(S(C)(=O)=O)cc2)cnn(-c2ccc(Cl)c(Cl)c2)c1=O,118 to 120
23,CC(=O)Oc1ccc(C(=O)O)cc1Cl,152 to 159
